Source: US20220081421A1, “ANTIBACTERIAL COMPOUNDS” (Forge Therapeutics, Inc., priority 2018, published 2022)
In brackets after ≈: the same amount, converted by molar mass. Read-outs that look alike come from different tables or passages of the source.

How the values were obtained:
[1] = test system: E. coli; assay: MIC by broth microdilution (CLSI), E. coli; assay type: cell-based; settings: Escherichia coli, read-out: E. coli MIC
Experimental: (§1) Minimal inhibitory concentrations (MIC) were determined by the broth microdilution method in accordance with the Clinical and Laboratory Standards Institute (CLSI) guidelines. In brief, organism suspensions were adjusted to a 0.5 McFarland standard to yield a final inoculum between 3×10^5 and 7×10^5 colony-forming units (CFU)/mL. Drug dilutions and inocula were made in sterile, cation adjusted Mueller-Hinton Broth (Beckton Dickinson). An inoculum volume of 100 μL was added to wells containing 100 μL of broth with 2-fold serial dilutions of drug. All inoculated microdilution trays were incubated in ambient air at 35° C. for 18-24 h. Following incubation, the lowest concentration of the drug that prevented visible growth (OD600 nm<0.05) was recorded as the MIC. Performance of the assay was monitored by the use of laboratory quality-control strains and levofloxacin, a compound with a defined MIC spectrum, in accordance with CLSI guidelines.

[2] = test system: K. pneumoniae; assay: MIC by broth microdilution (CLSI), K. pneumoniae; assay type: cell-based; settings: Klebsiella pneumoniae, read-out: K. pneumoniae MIC
Experimental: as §1

[3] = broth microdilution, cation adjusted Mueller-Hinton Broth, 35° C., 18-24 h

| MIC [1, 3] | MIC [2, 3] | Structure (SMILES) | MIC [1] | MIC [2] |
| --- | --- | --- | --- | --- |
| 8 to 32 µg/mL (≈ 18.1 to 72.5 µM) | > 32 µg/mL | O=c1[nH]cnc(Cn2ccc3cc(C#Cc4ccc(CN5CCOCC5)cc4)cnc32)c1O [Compound 80, 5-hydroxy-6-((5-((4-(morpholinomethyl)phenyl)ethynyl)-1H-pyrrolo[2,3-b]pyridin-1-yl)methyl)pyrimidin-4(3H)-one] |  |  |
| 1 to 8 µg/mL (≈ 2.34 to 18.8 µM) | > 32 µg/mL | O=c1[nH]cnc(C2CC2c2ccc(C#Cc3ccc(CN[C@@H]4CCNC4)cc3)cc2)c1O (stereo partly drawn) [Compound 103, 5-hydroxy-6-(2-(4-((4-((((R)-pyrrolidin-3-yl)amino)methyl)phenyl)ethynyl)phenyl)cyclopropyl) pyrimidin-4(3H)-one] |  |  |
| 1 to 8 µg/mL (≈ 2.33 to 18.6 µM) | 1 to 8 µg/mL (≈ 2.33 to 18.6 µM) | CC(Cc1ccc(C#Cc2ccc(CN3CCOCC3)cc2)cc1)c1nc[nH]c(=O)c1O (stereo not shown) [Compound 104, 5-hydroxy-6-(1-(4-((4-(morpholinomethyl)phenyl)ethynyl)phenyl)propan-2-yl)pyrimidin-4(3H)-one] |  |  |
| 1 to 8 µg/mL (≈ 2.34 to 18.7 µM) | 1 to 8 µg/mL (≈ 2.34 to 18.7 µM) | C=C(Cc1ccc(C#Cc2ccc(CN3CCOCC3)cc2)cc1)c1nc[nH]c(=O)c1O [Compound 105, 5-hydroxy-6-(3-(4-((4-(morpholinomethyl)phenyl)ethynyl)phenyl)prop-1-en-2-yl)pyrimidin-4(3H)-one] |  |  |
| 1 to 8 µg/mL (≈ 2.2 to 17.6 µM) | 1 to 8 µg/mL (≈ 2.2 to 17.6 µM) | N#CCC(Cc1ccc(C#Cc2ccc(CN3CCOCC3)cc2)cc1)c1nc[nH]c(=O)c1O (stereo not shown) [Compound 106, 3-(5-hydroxy-6-oxo-1,6-dihydropyrimidin-4-yl)-4-(4-((4-(morpholinomethyl)phenyl)ethynyl)phenyl)butanenitrile] |  |  |
| 1 to 8 µg/mL (≈ 2.2 to 17.6 µM) | 8 to 32 µg/mL (≈ 17.6 to 70.4 µM) | N#CCC(Cc1ccc(C#Cc2ccc(CN[C@H]3CCOC3)cc2)cc1)c1nc[nH]c(=O)c1O (stereo partly drawn) [Compound 107, 3-(5-hydroxy-6-oxo-1,6-dihydropyrimidin-4-yl)-4-(4-((4-((((S)-tetrahydrofuran-3-yl)amino)methyl)phenyl)ethynyl)phenyl)butanenitrile] |  |  |
| 1 to 8 µg/mL (≈ 2.4 to 19.2 µM) | > 32 µg/mL | O=c1[nH]cnc(CNc2ccc(C#Cc3ccc(CN4CCOCC4)cc3)cc2)c1O [Compound 108, 5-hydroxy-6-(((4-((4-(morpholinomethyl)phenyl)ethynyl)phenyl)amino)methyl) pyrimidin-4(3H)-one] |  |  |
| 1 to 8 µg/mL (≈ 2.4 to 19.2 µM) | 8 to 32 µg/mL (≈ 19.2 to 76.8 µM) | O=c1ccoc(CNc2ccc(C#Cc3ccc(CN4CCOCC4)cc3)cc2)c1O [Compound 109, 3-hydroxy-2-(((4-((4-(morpholinomethyl)phenyl)ethynyl)phenyl)amino)methyl)-4H-pyran-4-one] |  |  |
| 8 to 32 µg/mL (≈ 16.9 to 67.7 µM) | > 32 µg/mL | C/C(=N\O)C(Cc1ccc(C#Cc2ccc(CN3CCOCC3)cc2)cc1)c1ncnc(O)c1O (stereo not shown) [Compound 111, (E)-3-(5,6-dihydroxypyrimidin-4-yl)-4-(4-((4-(morpholinomethyl)phenyl)ethynyl)phenyl)butan-2-one oxime] |  |  |
| 8 to 32 µg/mL (≈ 17.2 to 69 µM) | 8 to 32 µg/mL (≈ 17.2 to 69 µM) | O=c1[nH]cnc(C(CCl)Cc2ccc(C#Cc3ccc(CN4CCOCC4)cc3)cc2)c1O (stereo not shown) [Compound 113, 6-(1-chloro-3-(4-((4-(morpholinomethyl)phenyl)ethynyl)phenyl)propan-2-yl)-5-hydroxypyrimidin-4(3H)-one] |  |  |
| 8 to 32 µg/mL (≈ 14.7 to 58.6 µM) | > 32 µg/mL | O=C(OC1CCSC1)C(Cc1ccc(C#Cc2ccc(CN3CCOCC3)cc2)cc1)c1nc[nH]c(=O)c1O (stereo not shown) [Compound 115, tetrahydrothiophen-3-yl 2-(5-hydroxy-6-oxo-1,6-dihydropyrimidin-4-yl)-3-(4-((4-(morpholinomethyl)phenyl)ethynyl)phenyl)propanoate] |  |  |
| 8 to 32 µg/mL (≈ 16.4 to 65.8 µM) | > 32 µg/mL | CO/N=C(\C)C(Cc1ccc(C#Cc2ccc(CN3CCOCC3)cc2)cc1)c1ncnc(O)c1O (stereo not shown) [Compound 116, (E)-3-(5,6-dihydroxypyrimidin-4-yl)-4-(4-((4-(morpholinomethyl)phenyl)ethynyl)phenyl)butan-2-one O-methyl oxime] |  |  |
| 8 to 32 µg/mL (≈ 19.3 to 77 µM) | > 32 µg/mL | O=c1ccoc(CCc2ccc(C#Cc3ccc(CN4CCOCC4)cc3)cc2)c1O [Compound 117, 3-hydroxy-2-(4-((4-(morpholinomethyl)phenyl)ethynyl)phenethyl)-4H-pyran-4-one] |  |  |
| > 32 µg/mL | > 32 µg/mL | CC(=O)NCC(Cc1ccc(C#Cc2ccc(CN3CCOCC3)cc2)cc1)c1c(O)cn[nH]c1=O (stereo not shown) [Compound 131, N-(2-(5-hydroxy-3-oxo-2,3-dihydropyridazin-4-yl)-3-(4-((4-(morpholinomethyl)phenyl)ethynyl)phenyl)propyl)acetamide] |  |  |
|  |  | Cn1cnc(C(CNC(=O)CF)Cc2ccc(C#Cc3ccc(CN4CCOCC4)cc3)cc2)c(O)c1=O (stereo not shown) [Compound 132, 2-fluoro-N-(2-(5-hydroxy-1-methyl-6-oxo-1,6-dihydropyrimidin-4-yl)-3-(4-((4-(morpholinomethyl)phenyl)ethynyl)phenyl)propyl)acetamide] | > 32 µg/mL | > 32 µg/mL |
| > 32 µg/mL | > 32 µg/mL | OCC(Cc1nccc(O)c1O)c1ccc(C#Cc2ccc(CN3CCOCC3)cc2)cc1 (stereo not shown) [Compound 134, 2-(3-hydroxy-2-(4-((4-(morpholinomethyl)phenyl)ethynyl)phenyl)propyl)pyridine-3,4-diol] |  |  |
| 8 to 32 µg/mL (≈ 18.1 to 72.5 µM) | > 32 µg/mL | O=c1[nH]cnc(C2(Cc3ccc(C#Cc4ccc(CN5CCOCC5)cc4)cc3)CC2)c1O [Compound 135, 5-hydroxy-6-(1-(4-((4-(morpholinomethyl)phenyl)ethynyl)benzyl)cyclopropyl) pyrimidin-4(3H)-one] |  |  |
| 1 to 8 µg/mL (≈ 2.26 to 18.1 µM) | 8 to 32 µg/mL (≈ 18.1 to 72.5 µM) | O=c1[nH]cnc(C2(Cc3ccc(C#Cc4ccc(CNC5CCOC5)cc4)cc3)CC2)c1O (stereo not shown) [Compound 136, 5-hydroxy-6-(1-(4-((4-(((tetrahydrofuran-3-yl)amino)methyl)phenyl)ethynyl)benzyl)cyclopropyl)pyrimidin-4(3H)-one] |  |  |
| 1 to 8 µg/mL (≈ 2.24 to 18 µM) | 1 to 8 µg/mL (≈ 2.24 to 18 µM) | O=c1ccoc(CC(CO)c2ccc(C#Cc3ccc(CN4CCOCC4)cc3)cc2)c1O (stereo not shown) [Compound 137, 3-hydroxy-2-(3-hydroxy-2-(4-((4-(morpholinomethyl)phenyl)ethynyl)phenyl)propyl)-4H-pyran-4-one] |  |  |
| 8 to 32 µg/mL (≈ 18 to 72 µM) | 8 to 32 µg/mL (≈ 18 to 72 µM) | O=c1cccc(CC(CO)c2ccc(C#Cc3ccc(CN4CCOCC4)cc3)cc2)n1O (stereo not shown) [Compound 138, 1-hydroxy-6-(3-hydroxy-2-(4-((4-(morpholinomethyl)phenyl)ethynyl)phenyl)propyl)pyridin-2(1H)-one] |  |  |
